Results reported in patent EP4768489A1, “CYCLOBUTYL-CONTAINING COMPOUNDS” (Chia Tai Tianqing Pharmaceutical Group Co., Ltd., priority 2023, dated 2025).

Tests used:
[1] = target: T1, AR in LNCaP (T878A) cells (Homo sapiens, UniProt P10275, T878A); test: Assay on degradation activity for AR in LNCaP (T878A) cells (HTRF); assay type: cell-based; conditions: maximum degradation rate, 24 h
T1 construct: Assay on degradation activity for AR in LNCaP (T878A) cells; endogenous in cells; host or cells: LNCaP cells
T1 sequence (P10275 1-920 T878A): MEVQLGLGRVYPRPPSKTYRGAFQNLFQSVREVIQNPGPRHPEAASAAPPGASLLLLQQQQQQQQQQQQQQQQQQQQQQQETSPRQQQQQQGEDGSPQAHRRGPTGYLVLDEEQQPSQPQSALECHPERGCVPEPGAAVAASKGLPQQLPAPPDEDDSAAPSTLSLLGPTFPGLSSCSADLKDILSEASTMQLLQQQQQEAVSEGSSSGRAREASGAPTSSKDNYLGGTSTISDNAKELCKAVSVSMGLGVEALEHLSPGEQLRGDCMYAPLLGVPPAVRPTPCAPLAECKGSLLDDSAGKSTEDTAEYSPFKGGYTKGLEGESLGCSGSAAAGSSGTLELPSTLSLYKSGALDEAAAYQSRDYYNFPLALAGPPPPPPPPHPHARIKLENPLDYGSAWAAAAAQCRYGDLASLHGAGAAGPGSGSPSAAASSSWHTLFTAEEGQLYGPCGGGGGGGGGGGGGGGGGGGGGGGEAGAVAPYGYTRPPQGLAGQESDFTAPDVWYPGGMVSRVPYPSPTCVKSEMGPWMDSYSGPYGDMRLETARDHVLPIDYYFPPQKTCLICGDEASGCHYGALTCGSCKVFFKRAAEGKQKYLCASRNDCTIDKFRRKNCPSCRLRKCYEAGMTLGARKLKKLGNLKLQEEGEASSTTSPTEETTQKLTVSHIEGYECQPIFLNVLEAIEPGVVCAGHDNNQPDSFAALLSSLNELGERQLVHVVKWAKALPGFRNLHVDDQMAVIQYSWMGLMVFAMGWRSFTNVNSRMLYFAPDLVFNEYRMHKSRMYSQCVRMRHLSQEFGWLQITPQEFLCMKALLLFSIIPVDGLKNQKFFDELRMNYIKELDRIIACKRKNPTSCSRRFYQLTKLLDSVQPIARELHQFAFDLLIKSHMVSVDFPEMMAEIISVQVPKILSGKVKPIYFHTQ
Method: The detection was carried out using the HTRF HUMAN ANDROGEN RECEPTOR DETECTION KIT (cisbio, 64ANDRPEG), 4× Supplemented Lysis buffer was prepared using the Blocking reagent stock solution (100×) and Lysis buffer stock solution (4×), and 1× Supplemented Lysis buffer was prepared using the 4× Supplemented Lysis buffer and ddH2O. Premixed antibody solutions were prepared using Detection buffer, Androgen Receptor Eu Cryptate antibody, and Androgen Receptor d2 antibody.
The cells were cultured overnight in a cell incubator. […] After the cells were oscillated for 40 min at room temperature, 16 µL of the cell lysis buffer was added to a 384-well plate, the Premixed antibody solutions were added at 4 µL/well, and the mixture was left to stand at 25 °C for 2 h. […] Table 2. Degradation activity of compounds for AR in LNCaP (T878A) cells

in vivo = conditions: mouse
Method: (§1) ICR mice weighing 18-22 g were randomized into groups of 9 after 3-5 days of acclimatization. The mice in the intragastric administration group were intragastrically given the test compound solution at a dose of 10 mg/kg (20 mg/kg or 30 mg/kg), and the mice in the intravenous injection administration group were intravenously injected with the test compound solution at a dose of 1 mg/kg.
(§2) Blood was collected from the orbit to prepare plasma samples to be tested.
(§3) 30 µL of each of the plasma samples to be tested and a standard curve sample were taken, and an acetonitrile solution containing an internal standard was added. Supernatants were obtained by protein precipitation, diluted with a 1:1 (v:v) mixed solution of acetonitrile and water, and then assayed by LC/MS/MS. Data were fitted using a non-compartmental model.

[2] = In vitro liver microsome stability, mouse; assay type: in vitro ADME; conditions: mouse liver microsomes 0.5 mg/mL, 37 °C, NADPH
Method: Liver microsome incubation samples were prepared by mixing a PBS buffer (pH 7.4), a liver microsome solution (0.5 mg/mL), a test compound, and an NADPH + MgCl2 solution, followed by incubation at 37 °C and 300 rpm for 1 h. Zero-hour samples were prepared by mixing a PBS buffer (pH 7.4), a liver microsome solution (0.5 mg/mL), and a test compound. […]

Mouse pharmacokinetics = conditions: Mouse i.g. (0-48 h), 10 mpk vs i.v. 1 mpk
Method: as §1, §2, §3

Structure (SMILES)	Dmax [1]	AUC at 48 h (in vivo; iv, 1 mg/kg)	Vd (in vivo; iv, 1 mg/kg)	clearance (in vivo; iv, 1 mg/kg)	half-life (in vivo; iv, 1 mg/kg)	AUC at 48 h (in vivo; po, 10 mg/kg)	Cmax (in vivo; po, 10 mg/kg)	half-life (in vivo; po, 10 mg/kg)	MLM (mouse) Remaining amount at 60 min % [2]	F (Mouse pharmacokinetics)
COc1cc(O[C@H]2C(C)(C)[C@H](NC(=O)c3ccc(N4CCC(CN5CCc6c(ccc7c(C8CCC(=O)NC8=O)noc67)C5)CC4)cc3)C2(C)C)ccc1C#N (stereo partly shown) [Compound 1]	> 90%	8380 ng·h/mL	2.13 L/kg	1.78 mL/min/kg	834 min	26800 ng·h/mL	786 ng/mL	1490 min	>70%	31.99%
COc1cc(O[C@H]2C(C)(C)[C@H](NC(=O)c3ccc(N4CCC(CN5CCc6c(ccc7c(C8CCC(=O)NC8=O)noc67)C5)CC4)nc3)C2(C)C)ccc1C#N (stereo partly shown) [Compound 3]	> 90%	–	–	–	–	–	–	–	>70%	–
COc1cc(O[C@H]2C(C)(C)[C@H](NC(=O)c3cnc(N4CCC(CN5CCc6c(ccc7c(C8CCC(=O)NC8=O)noc67)C5)CC4)nc3)C2(C)C)ccc1C#N (stereo partly shown) [Compound 4]	> 90%	7730 ng·h/mL	2.14 L/kg	1.97 mL/min/kg	630 min	39000 ng·h/mL	1360 ng/mL	702 min	>70%	55.36%
COc1cc(O[C@H]2C(C)(C)[C@H](NC(=O)c3cnc(N4CCC(CN5CCc6c(ccc7c(C8CCC(=O)NC8=O)noc67)C5)CC4)cn3)C2(C)C)ccc1C#N (stereo partly shown) [Compound 5]	> 90%	4340 ng·h/mL	3.79 L/kg	3.5 mL/min/kg	595 min	22100 ng·h/mL	1010 ng/mL	583 min	>70%	50.78%
COc1cc(O[C@H]2C(C)(C)[C@H](NC(=O)c3ccc(N4CCC(CN5CCc6c(ccc7c(C8CCC(=O)NC8=O)noc67)C5)CC4)nn3)C2(C)C)ccc1C#N (stereo partly shown) [Compound 6]	> 90%	–	–	–	–	–	–	–	>70%	–
